Measurements published in PMC10107917 (ACS Medicinal Chemistry Letters, 2023).
Like-named read-outs stand apart in the source and are kept apart here. Square brackets hold non-standard residues; d marks the D form. * marks the point of attachment. AMC = Cc1cc(=O)oc2cc(N*)ccc12; pGlu = O=C1CC[C@@H](C(=O)O)N1

How the values were obtained:
human recombinant furin [1] = biological target: T1, human recombinant furin (Homo sapiens, UniProt P09958); type: biochemical
T1 construct: Soluble human recombinant furin was kindly gifted; gift of Dr Anna Kwiatkowska (group of Prof. Robert Day, Université de Sherbrooke)
T1 sequence (P09958 108-715 limits assumed): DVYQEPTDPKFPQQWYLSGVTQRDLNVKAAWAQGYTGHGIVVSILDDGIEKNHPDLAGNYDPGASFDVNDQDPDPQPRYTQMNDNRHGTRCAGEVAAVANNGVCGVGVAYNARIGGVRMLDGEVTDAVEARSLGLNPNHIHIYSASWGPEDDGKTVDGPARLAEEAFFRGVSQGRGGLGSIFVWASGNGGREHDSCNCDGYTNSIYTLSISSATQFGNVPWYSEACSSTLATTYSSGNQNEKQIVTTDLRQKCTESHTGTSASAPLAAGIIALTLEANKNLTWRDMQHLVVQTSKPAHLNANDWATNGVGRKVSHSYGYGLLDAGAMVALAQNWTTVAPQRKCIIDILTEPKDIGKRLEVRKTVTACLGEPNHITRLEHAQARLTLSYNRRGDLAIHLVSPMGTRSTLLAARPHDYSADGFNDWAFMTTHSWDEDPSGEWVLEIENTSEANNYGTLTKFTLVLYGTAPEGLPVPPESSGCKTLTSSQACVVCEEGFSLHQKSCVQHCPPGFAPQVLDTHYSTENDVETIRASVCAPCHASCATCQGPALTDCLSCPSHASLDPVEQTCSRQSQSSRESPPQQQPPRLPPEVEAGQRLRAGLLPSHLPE
Description: Initially, the activities of the furin inhibitors were screened at three concentrations, i.e., 2.4, 24.0, and 77.0 nM (Figure 4). For selected peptides 3, 5, and 6 and the reference FI, the inhibitory constants (Ki) were calculated (Table 2). Except for the bicyclic peptide 4, all of the inhibitors almost completely abolished the enzyme activity at the highest tested concentration. Peptide 4 was explicitly the weakest inhibitor in the series, also when compared with its monocyclic disulfide-bridged counterpart 1. When the inhibitory activities were analyzed at the lowest tested concentration (2.4 nM), three peptides (3, 5, and 6) reduced the furin activity to less than 50% of its initial noninhibited activity. All of them have an additional basic amino acid at their N-termini (in MD simulations this is depicted as a residue with number “0”). […] Such close inhibitory potency was not observed in the case of an analogous pair, i.e., 2 and 5. […] The two disulfide-bridged peptides, FI and 1, differ only at the P4 position, having Lys and Arg, respectively. […]
The IC50 values (inhibitor concentrations giving 50% inhibition of enzyme activity) were calculated from plots of enzyme activity (% of control sample) versus the inhibitor’s concentration using a four-parameter fit model (GraFit 5.0.12 Erithacus Software Ltd.). The IC50 values were determined from triplicate measurements with at least seven different inhibitor concentrations. The K i values […] were calculated using the Cheng-Prusoff equation, assuming the competitive mode of inhibition, according to the following relationship: IC50 = K i(1+S/Km). All measurements were performed using a Fluostar Omega microplate reader (BMG Labtech, Germany) and 96-well black plates (BRAND, Germany). Recombinant human matriptase-1/ST14 catalytic domain was purchased from R&D Systems, USA. Recombinant human matriptase-2 was obtained from Enzo Life Sciences, Switzerland.
Soluble human recombinant furin was kindly gifted by Dr Anna Kwiatkowska (group of Prof. Robert Day from Université de Sherbrooke).4
The following assay buffers were used: […] (matriptase-1 and matriptase-2), pH 7.5 100 mM HEPES with 1 mM CaCl 2 and 1.8 mg/mL BSA (furin). The substrates used in the assays were as follows: for matriptase-1 and matriptase-2 Boc-Gln-Ala-Arg-AMC (Pepta Nova, Germany) in final concentration of 5 µM, for furin […] (Pepta Nova, Germany) in final concentration of 20 µM. Enzymes concentrations were as follows: 1.25 ng/mL of matriptase-1, 1.51 U/mL for matriptase-2, and 1.1 nM for furin. In the case of matriptase-1 and matripase-2 concentrations were calculated according to information provided by the suppliers.
In short, the tested compounds were added to the appropriate protease in different concentrations and incubated in an assay buffer at 37 °C for 30 min. After this time, a solution of appropriate substrate was added. Reactions were monitored for at least 40 min at 37 °C. The final volume in each well was 200 µL for matriptases and 100 µL for furin. Measurements were carried out using excitation and emission wavelengths of 380 nm and 450 nm. The percentage inhibition of an enzyme was calculated relative to the control sample without an inhibitor. The K m value for furin substrate was determined by incubating the enzyme with its substrate in various concentrations as recommended.5 Plots of the substrate concentration versus the initial reaction velocity were analyzed according to Michaelis-Menten equation using GraFit 5.0.12 Erithacus Software Ltd. A double reciprocal (Lineweaver-Burk) plot was used to determine the Michaelis constant K m value. K m value determined for furin was 1.90 µM.
(§1) Total furin-like enzyme inhibition/activity in PANC-1 cell lysates
Cell line and cell culture. The pancreatic cancer cell line, PANC-1, was obtained from the American Type Culture Collection, ATCC (Manassas, USA). […]

human recombinant furin [2] = biological target: T1, human recombinant furin; test: Screening (iterative deconvolution) of peptide sublibraries for furin inhibition; type: biochemical; conditions: Figure 3D1
Description: Each of the sublibraries was screened for inhibitory activity against human recombinant furin in the presence of the fluorogenic substrate Pyr-Arg-Thr-Lys-Arg-AMC (where Pyr is pyroglutamic acid and AMC is 7-amino-4-methylcoumarin). Initially, each sublibrary was screened in a 2.2 ng/mL stock solution (Figure 3).
Phe(4-NH-Boc) we experienced difficulties with complete coupling. So we performed reactions by applying microwave heating (50 °C) which improved the process. The same procedures were applied during the whole library synthesis. 10% of mass of each portion was removed for deconvolution.
2. After that, both portions were combined and divided into 10 (j) equal portions, each of which was acylated individually with different protected amino acid. 10% of the mass of each portion was removed for deconvolution.
3. After mixing all j portions of peptidyl–resin, Cys protected derivative was attached.
4. […]
6. Sublibraries with fixed best hits in Xaa (l-j) were subsequently synthesized (using previously put aside 10% of synthesized sublibraries) and their inhibitory activity was determined until the position Xi. […] The inhibitory activity of sublibraries against furin were measured using Pyr-Arg-Thr-Lys-Arg-AMC fluorogenic substrate (Pepta Nova). The experiments were performed on 96-well plates (BRAND, Germany) and microplate reader FluoStar Omega (BMG Labtech, Germany). […]

PANC-1 cell lysate = conditions: human, 37 °C
[3] = tested on: furin-like enzyme activity in PANC-1 cell lysate; test: Total furin-like enzyme activity in PANC-1 cell lysate; type: biochemical, human; conditions: peptide 100 µM
Description: The presence of furin in PANC-1 cell lysate was indicated by analyzing the release of fluorescent AMC product after incubation of furin substrate (Pyr-Arg-Thr-Lys-Arg-AMC) in the lysate, as described elsewhere.[31],[32] However, we are aware that this assay tends to reflect total furin-like enzyme activity rather than the activity of furin exclusively. This is the case because the liberation of AMC may be catalyzed not only by furin but also by an enzyme with a similar substrate preference, such as other PCs.[31] […] For comparison, the effect of a strong trypsin inhibitor, […] SFTI-1, on furin-like activity was insignificant under the same assay conditions. […] It is likely that SFTI-1 may provide protection for furin inhibitors from degradation by trypsin-like proteases. […]
µL for matriptases and 100 µL for furin. Measurements were carried out using excitation and emission wavelengths of 380 nm and 450 nm. The percentage inhibition of an enzyme was calculated relative to the control sample without an inhibitor. […]
as §1
Cell line and cell culture. The pancreatic cancer cell line, PANC-1, was obtained from the American Type Culture Collection, ATCC (Manassas, USA). PANC-1, a human pancreatic cancer cell line, was isolated from the pancreatic duct (ATCC, CRL-1469) and was cultured in Dulbecco’s Modified Eagle’s Medium (DMEM) by supplementing 10% fetal bovine serum (FBS) and 1% of penicillin/streptomycin (P/S). Cells were cultured at 37 °C with 5% CO2 in a humidified atmosphere. Cells were maintained in a 75 cm2 tissue culture flask. The medium was replaced every two days. The subcultivation ratio was […]
Preparation of lysates. PANC-1 cells were seeded in a Petri dishes. After 24 hours, […] were collected and centrifuged at 975 × g at 4 °C for 9 minutes. The supernatant was removed, and the cells were resuspended in a cold PBS buffer. The cells were centrifuged again at 900 × g at 4 °C for 5 minutes.
The supernatant was removed. Cells were suspended in Halt Protease Inhibitor Cocktail, EDTA-Free (100X) (Thermo Fisher Scientific). The samples were stored for 2 hours at -80°C. The samples were then defrosted and centrifuged at 16 000 × g at 4 °C for 20 minutes. The supernatant was stored at -80 […]
The inhibitory potency of selected peptides was examined in cell lysate alone or in presence of sunflower trypsin inhibitor (SFTI-1)6 sing furin fluorogenic substrate […] (Pepta Nova, Germany). Furin activity was determined by monitoring the AMC liberation over time with a plate reader. Measurements were performed using 96-well black plates (BRAND, Germany).
The general procedure was according to.7 In short: 20 µL of cell lysate (diluted 10 times with assay buffer pH 7.5 100 mM HEPES with 1 mM CaCl 2) was added to the well containing 60 µL of water, after 15 min in 37 °C 10 µL of peptide solution (final concentration in well 100 µM) was added. After 30 min incubation in 37 °C 10 µL substrate (100 µM final concentration) was added. […]
Next step was addition of appropriate peptide solution
(final concentration in well 100 µM) and 30 min incubation in 37 °C. After this time 10 µL substrate (100 µM final concentration) was added to the well. Percentage inhibition of the enzyme was calculated relative to the control sample without inhibitor.
Human serum from plasma (Sigma Aldrich, Germany) was prepared for the assay as referred previously.8 The experiments were carried out according to the procedure described before.2 The initial concentration of the peptide solutions was 1.54 mM. Each peptide solution was then diluted 10 times with human serum and incubated at 37 °C. Immediately after the start of incubation, 1, 2, 3, 5 and 24

[4] = inhibitor 77.0 nM (highest tested concentration)

Substance | furin activity versus control with no inhibitor added (human recombinant furin [1]; inhibitor 2.4 nM) | furin activity versus control with no inhibitor added (human recombinant furin [1]; inhibitor 24.0 nM) | furin activity versus control with no inhibitor added (human recombinant furin [1]; [4]) | times more active than the peptide with Orn at P2 (human recombinant furin [2]) | cleaved bond (PANC-1 cell lysate) | effect on furin-like activity in PANC-1 cell lysate [3]
Arg-Arg-Cys(&)-Lys-Lys-Ser-Ile-Pro-Pro-Ile-Cys(&)-Phe-NH2 [inhibitor 1] | 62.95% | 6.02% | 0.20% | 2–3 times |  | 
[pGlu]RTKR-{AMC} |  |  |  |  | Arg-AMC | 
Lys-Arg-Arg-Cys(&)-Lys-Lys-Ser-Ile-Pro-Pro-Ile-Cys(&)-Phe-NH2 [inhibitor 2] | 66.51% | 3.98% | 0.10% |  |  | 
&^1Arg-Arg-Cys(&^2)-Lys-Lys-Ser-Ile-Pro-Pro-Ile-Cys(&^2)-Phe&^1 (KKSIPPIC; Arg-Arg-Cys, Phe; head-to-tail cyclised, disulfide; printed: Lys-Lys-Ser-Ile-Pro-Pro-Ile-Cys) [inhibitor 4] | 97.18% | 46.14% | 3.72% |  |  | 
sunflower trypsin inhibitor 1 [SFTI-1, reference compound] |  |  |  |  |  | insignificant
